Laboratory results taken from ChEMBL document CHEMBL4043226, “Design, synthesis and biological evaluation of benzamide and phenyltetrazole derivatives with amide and urea linkers as BCRP inhibitors” (Bioorg Med Chem Lett, 2017).

Assays:
[1] = Resistance index, ratio of mitoxantrone IC50 for human H460/MX20 cells to mitoxantrone IC50 for human H460 cells at 10 uM (reference value: 28.66)
[2] = Resistance index, ratio of mitoxantrone IC50 for human H460/MX20 cells to mitoxantrone IC50 for human H460 cells at 3 uM (reference value: 28.66)
[3] = Resistance index, ratio of mitoxantrone IC50 for human H460/MX20 cells to mitoxantrone IC50 for human H460 cells at 1 uM (reference value: 28.66)
[4] = molecular target: T1, Broad substrate specificity ATP-binding cassette transporter ABCG2 (Homo sapiens, UniProt Q9UNQ0); experiment: Inhibition of ABCG2 (unknown origin) expressed in high five insect cell membrane vesicles assessed as reduction in BCRP ATPase activity up to 3 uM preincubated for 3 mins followed by ATP addition measured for 20 mins
T1 sequence (Q9UNQ0 whole entry): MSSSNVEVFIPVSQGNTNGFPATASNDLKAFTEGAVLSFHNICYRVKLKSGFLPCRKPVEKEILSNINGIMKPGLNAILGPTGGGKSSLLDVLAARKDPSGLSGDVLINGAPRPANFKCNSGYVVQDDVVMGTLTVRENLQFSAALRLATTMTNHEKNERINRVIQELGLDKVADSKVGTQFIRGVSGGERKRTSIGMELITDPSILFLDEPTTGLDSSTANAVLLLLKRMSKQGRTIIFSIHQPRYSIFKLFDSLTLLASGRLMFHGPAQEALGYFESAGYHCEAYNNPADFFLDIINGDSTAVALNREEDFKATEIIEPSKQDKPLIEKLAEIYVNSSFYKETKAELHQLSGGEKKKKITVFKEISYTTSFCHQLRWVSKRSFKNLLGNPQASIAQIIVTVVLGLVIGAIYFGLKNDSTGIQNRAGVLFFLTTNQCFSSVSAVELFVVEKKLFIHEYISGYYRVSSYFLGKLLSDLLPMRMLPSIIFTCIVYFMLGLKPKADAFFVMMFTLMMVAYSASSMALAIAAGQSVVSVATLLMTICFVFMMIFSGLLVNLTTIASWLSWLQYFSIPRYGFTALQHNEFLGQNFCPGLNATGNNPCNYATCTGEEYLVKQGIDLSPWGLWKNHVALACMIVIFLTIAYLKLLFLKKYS

[5] = molecular target: T1, Broad substrate specificity ATP-binding cassette transporter ABCG2; experiment: Inhibition of ABCG2 (unknown origin) expressed in high five insect cell membrane vesicles assessed as reduction in BCRP ATPase activity at 3 to 30 uM preincubated for 3 mins followed by ATP addition measured for 20 mins
ABCG2 (BCRP) = molecular target: T2, ABCG2 (BCRP) (Homo sapiens, UniProt Q9UNQ0); experiment: Activation of ABCG2 (unknown origin) expressed in high five insect cell membrane vesicles assessed as induction of basal BCRP ATPase activity at 10 uM preincubated for 3 mins followed by ATP addition measured for 20 mins relative to control; settings: High Five insect cell membrane vesicles expressing ABCG2, read-out: FC
T2 sequence (Q9UNQ0 whole entry): T1 sequence (Q9UNQ0 whole entry)

[6] = Cytotoxicity against human NCI-H460/MX20 cells after 72 hrs by MTT assay; type: cell-based; settings: NCI-H460/MX20, 72 h
NCI-H460 = experiment: Cytotoxicity against human H460 cells after 72 hrs by MTT assay; type: cell-based; settings: NCI-H460, 72 h
[7] = Inhibition of ABCG2 in human H460/MX20 cells assessed as potentiation of mitoxantrone induced antiproliferative activity by measuring mitoxantrone IC50 at 10 uM preincubated for 2 hrs followed by mitoxantrone addition measured after 72 hrs by MTT assay (reference value: 6.161 +/- 0.172 microM)
[8] = molecular target: T1, Broad substrate specificity ATP-binding cassette transporter ABCG2; experiment: Inhibition of BCRP (unknown origin) expressed in MCF-7 MX cells assessed as reduction in Hoechst 33342 accumulation preincubated for 30 mins followed by Hoechst 33342 addition measured every 60 secs up to 120 mins by fluorescence assay; type: cell-based

Structure (SMILES) | Ratio IC50 [1] | Ratio IC50 [2] | Ratio IC50 [3] | inhibition (INH) [4] | inhibition (INH) [5] | fold induction at 20 min, 10 µM (ABCG2 (BCRP)) | IC50 [6] [µM] | IC50 (NCI-H460) [µM] | IC50 [7] [µM] | IC50 [8] [µM]
CCCc1ccc(NC(=O)c2ccccc2NC(=O)Nc2ccc([N+](=O)[O-])cc2)cc1 | 1.51 | 2.24 | 2.89 | Not Active | Active | 1.47 | > 100 | > 100 | 0.325 | –
CCCc1ccc(NC(=O)c2ccccc2NC(=O)c2ccc([N+](=O)[O-])cc2)cc1 | 2.76 | 3.64 | 3.87 | – | – | – | > 100 | > 100 | – | 0.94
